The values that follow come from US5929075A, “Apolipoprotein-B synthesis inhibitors” (Janssen Pharmaceutica, N.V., priority 1994, dated 1999).

This experiment concerns apolipoprotein B. In words: Apolipoprotein B (apo B) inhibition test in cultured human liver cells (Hepg2-cells). It is filed as cell-based. As to conditions: concentration of the drug needed to reduce apoB secretion to 50% of the control, overnight at 37° C. The procedure:
Cultured human liver cells (Hepg2-cells), which synthesize and secrete low-density lipoproteins, were incubated overnight at 37° C. in a liquid medium containing radioactively labelled leucine. Thus radioactively labelled leucine was incorporated into the apolipoprotein B. The liquid medium was decanted and the apolipoprotein B was isolated by means of a double immunoprecipitation, i.e. first an apolipoprotein B-specific antibody (antibody1) was added to the liquid medium and subsequently a second antibody (antibody2) was added which binds specifically to the apoB-antibody1 -complex. The thus formed apoB-antibody1 -antibody2 complex precipitated and was isolated by centrifuge. Quantification of the amount of apolipoprotein B synthesized during the night resulted from measuring the radioactivity of the isolated complex. To measure the inhibiting activity of the test compound, that test compound was added to the liquid medium at different concentrations and the concentration of apolipoprotein B synthesized in the presence of a test compound (concentration apoB(after)) was compared to the concentration of apolipoprotein B which was synthesized in the absence of the test compound (concentration apoB(control)). For each experiment the inhibition of apolipoprotein-B formation was expressed as
% inhibition=100×(1-concentration of apoB(after)/concentration
When more experiments were carried out for the same concentration, the median value of the inhibition calculated for these experiments was calculated. IC50 -values (concentration of the drug needed to reduce apoB secretion to 50% of the control) were also computed.

The compound `CCC(CC)n1cnn(-c2ccc(N3CCN(c4ccc(OC[C@H]5CO[C@](CSc6ncnn6C)(c6ccc(F)cc6F)O5)cc4)CC3)cc2)c1=O` (relative stereo) [Compound 73] registered an IC50 of 180 nM.

For the compound `CC(C)n1ncn(-c2ccc(N3CCN(c4ccc(OC[C@@H]5CO[C@@](CSc6nncn6C)(c6ccc(Cl)cc6)O5)cc4)CC3)cc2)c1=O` (relative stereo) [Compound 33], the IC50 worked out at 91 nM.

In turn, `CCC(C)n1ncn(-c2ccc(N3CCN(c4ccc(OC[C@@H]5CO[C@@](CSc6nnc(C(F)(F)F)n6C)(c6ccc(Cl)cc6)O5)cc4)CC3)cc2)c1=O` (relative stereo) [Compound 50] gave an IC50 of 260 nM. This IC50 is about 2.9-fold higher than that of the compound before. Under `CCC(C)n1ncn(-c2ccc(N3CCN(c4ccc(OC[C@H]5CO[C@](CSc6nncn6C(C)C)(c6ccc(Cl)cc6)O5)cc4)CC3)cc2)c1=O` (relative stereo) [Compound 52] stands 250 nM. In the case of `CCC(C)n1cnn(-c2ccc(N3CCN(c4ccc(OC[C@H]5CO[C@](CSc6ncnn6C)(c6ccc(F)cc6F)O5)cc4)CC3)cc2)c1=O` (relative stereo) [Compound 71] it was 120 nM. In the case of `CCC(C)n1ccn(-c2ccc(N3CCN(c4ccc(OC[C@H]5CO[C@](CSc6nncn6C)(c6ccc(F)cc6)O5)cc4)CC3)cc2)c1=O` (relative stereo) [Compound 126] it was 140 nM; in that of `Cn1ncnc1SC[C@]1(c2ccc(F)cc2)OC[C@H](COc2ccc(N3CCN(c4ccc(-n5ncn(C6CCCC6)c5=O)cc4)CC3)cc2)O1` (relative stereo) [Compound 74], 140 nM; in that of `CCC(C)n1ncn(-c2ccc(N3CCN(c4ccc(OC[C@H]5CO[C@](CSc6nnnn6-c6ccccc6)(c6ccc(Cl)cc6)O5)cc4)CC3)cc2)c1=O` (relative stereo) [Compound 89], 510 nM. `CCC(C)n1ncn(-c2ccc(N3CCN(c4ccc(OC[C@H]5CO[C@](CSc6nnc(O)n6C)(c6ccc(Cl)cc6)O5)cc4)CC3)cc2)c1=O` (relative stereo) [Compound 58] returned an IC50 of 310 nM. Compound `CCC(C)n1ncn(-c2ccc(N3CCN(c4ccc(OC[C@H]5CO[C@](CSc6ncn[nH]6)(c6ccc(Cl)cc6)O5)cc4)CC3)cc2)c1=O` (relative stereo) [Compound 76] registered an IC50 of 24 nM. In the case of `CCC(C)n1ncn(-c2ccc(N3CCN(c4ccc(OC[C@H]5CO[C@](CSc6ncccn6)(c6ccc(Cl)cc6)O5)cc4)CC3)cc2)c1=O` (relative stereo) [Compound 101] it was 160 nM; in that of `CCC(C)n1ncn(-c2ccc(N3CCN(c4ccc(OC[C@H]5CO[C@](CSc6nc(C)co6)(c6ccc(Cl)cc6)O5)cc4)CC3)cc2)c1=O` (relative stereo) [Compound 107], 45 nM. In the case of `CC(C)Cn1ncn(-c2ccc(N3CCN(c4ccc(OC[C@H]5CO[C@](CSc6ncnn6C)(c6ccc(Cl)cc6)O5)cc4)CC3)cc2)c1=O` (relative stereo) [Compound 61] it was 81 nM; in that of `CCC(CC)n1ncn(-c2ccc(N3CCN(c4ccc(OC[C@H]5CO[C@](CSc6ncnn6C)(c6ccc(F)cc6F)O5)cc4)CC3)cc2)c1=O` (relative stereo) [Compound 65], 290 nM; in that of `CCCn1nc(CC)nc1SC[C@]1(c2ccc(Cl)cc2)OC[C@H](COc2ccc(N3CCN(c4ccc(-n5cnn(C(C)CC)c5=O)cc4)CC3)cc2)O1` (relative stereo) [Compound 78], 53 nM. Under `Cn1cnnc1SC[C@@]1(c2ccc(Cl)cc2)OC[C@@H](COc2ccc(N3CCN(c4ccc(-n5ncn(C6CCCC6)c5=O)cc4)CC3)cc2)O1` (relative stereo) [Compound 6] stands 120 nM; under `CCC(C)n1ncn(-c2ccc(N3CCN(c4ccc(OC[C@H]5CO[C@](CSc6ccncc6)(c6ccc(Cl)cc6)O5)cc4)CC3)cc2)c1=O` (relative stereo) [Compound 106], 880 nM; under `CCC(C)n1ncn(-c2ccc(N3CCN(c4ccc(OC[C@H]5CO[C@](CSc6ncnn6C)(c6ccc(F)cc6F)O5)cc4)CC3)cc2)c1=O` (relative stereo) [Compound 62], 190 nM. With `CCC(C)n1ncn(-c2ccc(N3CCN(c4ccc(OC[C@@H]5CO[C@@](CSc6nncn6C)(c6ccc(F)cc6)O5)cc4)CC3)cc2)c1=O` (relative stereo) [Compound 28], the midpoint of inhibition, the IC50, lay at 97 nM. Under `CCC(C)n1ncn(-c2ccc(N3CCN(c4ccc(OC[C@H]5CO[C@](CSc6nncn6CC)(c6ccc(Cl)cc6)O5)cc4)CC3)cc2)c1=O` (relative stereo) [Compound 53] stands 84 nM; under `CCC(C)n1cnn(-c2ccc(N3CCN(c4ccc(OC[C@H]5CO[C@](CSc6ncn[nH]6)(c6ccc(Cl)cc6)O5)cc4)CC3)cc2)c1=O` (relative stereo) [Compound 83], 15 nM. In the case of `CCC(CC)n1cnn(-c2ccc(N3CCN(c4ccc(OC[C@@H]5CO[C@@](CSc6nncn6C)(c6ccc(Cl)cc6)O5)cc4)CC3)cc2)c1=O` (relative stereo) [Compound 7] it was 79 nM. Under `CCC(C)N1CCN(c2ccc(N3CCN(c4ccc(OC[C@H]5CO[C@](CSc6nncn6C)(c6ccc(Cl)cc6)O5)cc4)CC3)cc2)C1=O` (relative stereo) [Compound 94] stands 190 nM. Consider `CCC(C)n1ncn(-c2ccc(N3CCN(c4ccc(OC[C@H]5CO[C@](CSc6nc(C)nn6C)(c6ccc(Cl)cc6)O5)cc4)CC3)cc2)c1=O` (relative stereo) [Compound 81], for which the IC50 came out at 49 nM.

`Cn1cnnc1SC[C@@]1(c2ccc(F)cc2F)OC[C@@H](COc2ccc(N3CCN(c4ccc(-n5cnn(C6CCCC6)c5=O)cc4)CC3)cc2)O1` (relative stereo) [Compound 37] returned an IC50 of 230 nM. This IC50 lies about 4.7-fold higher than the previous one. In the case of `CCC(CC)n1ncn(-c2ccc(N3CCN(c4ccc(OC[C@H]5CO[C@](CSc6ncnn6C)(c6ccc(F)cc6)O5)cc4)CC3)cc2)c1=O` (relative stereo) [Compound 64] it was 160 nM; in that of `CCC(C)n1ncn(-c2ccc(N3CCN(c4ccc(OC[C@H]5CO[C@](CSc6nccs6)(c6ccc(Cl)cc6)O5)cc4)CC3)cc2)c1=O` (relative stereo) [Compound 108], 26 nM; in that of `CC(C)Cn1cnn(-c2ccc(N3CCN(c4ccc(OC[C@H]5CO[C@](CSc6nccs6)(c6ccc(Cl)cc6)O5)cc4)CC3)cc2)c1=O` (relative stereo) [Compound 111], 62 nM. In the case of `CC(C)n1cnn(-c2ccc(N3CCN(c4ccc(OC[C@@H]5CO[C@@](CSc6nncn6C)(c6ccc(F)cc6)O5)cc4)CC3)cc2)c1=O` (relative stereo) [Compound 4] it was 260 nM; in that of `CCC(CC)n1ncn(-c2ccc(N3CCN(c4ccc(OC[C@@H]5CO[C@@](CSc6nncn6C)(c6ccc(Cl)cc6)O5)cc4)CC3)cc2)c1=O` (relative stereo) [Compound 44], 51 nM; in that of `CCCCn1ncnc1SC[C@]1(c2ccc(Cl)cc2)OC[C@H](COc2ccc(N3CCN(c4ccc(-n5cnn(C(C)CC)c5=O)cc4)CC3)cc2)O1` (relative stereo) [Compound 79], 46 nM. Under `CCCCCn1ncn(-c2ccc(N3CCN(c4ccc(OC[C@@H]5CO[C@@](CSc6nncn6C)(c6ccc(Cl)cc6)O5)cc4)CC3)cc2)c1=O` (relative stereo) [Compound 32] stands 180 nM; under `CCCn1ncnc1SC[C@]1(c2ccc(Cl)cc2)OC[C@H](COc2ccc(N3CCN(c4ccc(-n5cnn(C(C)CC)c5=O)cc4)CC3)cc2)O1` (relative stereo) [Compound 80], 72 nM. As to `CCCCn1cnnc1SC[C@@]1(c2ccc(Cl)cc2)OC[C@@H](COc2ccc(N3CCN(c4ccc(-n5cnn(C(C)CC)c5=O)cc4)CC3)cc2)O1` (relative stereo) [Compound 51], half-maximal inhibition (IC50) required 47 nM. Against the preceding compound, the IC50 is about 1.5-fold lower. In the case of `CC[C@@H](C)n1ncn(-c2ccc(N3CCN(c4ccc(OC[C@@H]5CO[C@@](CSc6nncn6C)(c6ccc(Cl)cc6)O5)cc4)CC3)cc2)c1=O` [Compound 40] it was 23 nM; in that of `CCC(C)n1cnn(-c2ccc(N3CCN(c4ccc(OC[C@H]5CO[C@](CSc6nccs6)(c6ccc(Cl)cc6)O5)cc4)CC3)cc2)c1=O` (relative stereo) [Compound 110], 27 nM. Under `CC(C)Cn1ncn(-c2ccc(N3CCN(c4ccc(OC[C@@H]5CO[C@@](CSc6nncn6C)(c6ccc(Cl)cc6)O5)cc4)CC3)cc2)c1=O` (relative stereo) [Compound 23] stands 140 nM; under `CCC(C)n1cnn(-c2ccc(N3CCN(c4ccc(OC[C@@H]5CO[C@@](CSc6nncn6C)(c6ccc(F)cc6)O5)cc4)CC3)cc2)c1=O` (relative stereo) [Compound 9], 110 nM; under `CC(C)Cn1cnn(-c2ccc(N3CCN(c4ccc(OC[C@@H]5CO[C@@](CSc6nncn6C)(c6ccc(F)cc6)O5)cc4)CC3)cc2)c1=O` (relative stereo) [Compound 5], 200 nM. `Cn1ncnc1SC[C@]1(c2ccc(F)cc2F)OC[C@H](COc2ccc(N3CCN(c4ccc(-n5cnn(C6CCCC6)c5=O)cc4)CC3)cc2)O1` (relative stereo) [Compound 67]: the concentration for half-maximal inhibition (IC50) was 180 nM. This IC50 and that of the compound before are within 1.5-fold of each other. In the case of `CCC(C)n1ncn(-c2ccc(N3CCN(c4ccc(OC[C@H]5CO[C@](CSc6ncnn6C)(c6ccc(F)cc6)O5)cc4)CC3)cc2)c1=O` (relative stereo) [Compound 63] it was 46 nM; in that of `Cn1ncnc1SC[C@]1(c2ccc(F)cc2F)OC[C@H](COc2ccc(N3CCN(c4ccc(-n5ncn(C6CCCC6)c5=O)cc4)CC3)cc2)O1` (relative stereo) [Compound 72], 190 nM.
